The source made the active and inactive calls. The rule behind the calls is not given here.
What was measured:
[1] = target: T1, Mushroom tyrosinase (Agaricus bisporus, UniProt O42713+Q00024+C7FF04+C7FF05); experiment: Inhibition of Agaricus bisporus tyrosinase using L-dopa as substrate preincubated with compound for 20 mins followed by substrate addition measured after 5 mins by absorbance based assay
[2] = target: T1, Mushroom tyrosinase; experiment: Inhibition of Agaricus bisporus tyrosinase using L-tyrosine as substrate preincubated with compound for 20 mins followed by substrate addition measured after 10 mins by absorbance based assay
[3] = test system: B16-F10; experiment: Downregulation of MiTF level in mouse B16-F10 cells incubated for 72 hrs by Western blot analysis; format: functional, cell-based; conditions: dose 0.1-2 µM
[4] = Permeability in pig skin explant Franz diffusion cell model assessed as compound remaining intradermal at 2 mg/ml, TOPp measured after 2 hrs by HPLC analysis; format: ADME, tissue-based, Sus scrofa, Skin of body; conditions: topical_or_ocular
[5] = test system: B16-F10; experiment: Cytotoxicity against mouse B16-F10 cells at 50 uM incubated for 72 hrs by MTT assay; format: toxicity, cell-based; conditions: b16-f10, 72 h
[6] = test system: Cavia porcellus; experiment: Anti-melanogenic activity in guinea pig model of UV-induced skin pigmentation assessed as reduction in melanin production at 1 mM administered topically as PG formulation for 2 weeks measured after 3 days by Fontana-Masson staining based analysis; format: functional, organism-based; conditions: time 17.0 day
[7] = test system: B16-F10; experiment: Anti-melanogenic activity against alpha-MSH-stimulated mouse B16-F10 cells assessed as decrease in melanin content incubated for 24 hrs by absorbance based assay; format: functional, cell-based; conditions: dose 5-25 µM
[8] = test system: Cavia porcellus; experiment: Anti-melanogenic activity in guinea pig model of UV-induced skin pigmentation assessed as healing of scorching skin administered topically for 2 weeks measured after 3 days by Fontana-Masson staining based analysis; format: functional, organism-based; conditions: dose 0.5-1 mM, time 17.0 day
[9] = Permeability in pig skin explant Franz diffusion cell model assessed as compound remaining intradermal at 2 mg/ml, TOPp measured after 4 hrs by HPLC analysis; format: ADME, tissue-based, Sus scrofa, Skin of body; conditions: topical_or_ocular
[10] = test system: Cavia porcellus; experiment: Anti-melanogenic activity in guinea pig model of UV-induced skin pigmentation assessed as inhibition of melanin production administered topically for 2 weeks measured after 3 days by Fontana-Masson staining based analysis; format: functional, organism-based; conditions: time 17.0 day
[11] = test system: B16-F10; experiment: Downregulation of TYR in mouse B16-F10 cells incubated for 72 hrs by Western blot analysis; format: functional, cell-based; conditions: dose 0.1-2 µM
[12] = Permeability in pig skin explant Franz diffusion cell model assessed as compound remaining transdermal at 2 mg/ml, TOPp measured for 0.5 to 24 hrs by HPLC analysis; format: ADME, tissue-based, Sus scrofa, Skin of body; conditions: topical_or_ocular, time 0.5-24 hrs
[13] = target: T2, Tyrosinase (Mus musculus) (UniProt P11344); experiment: Inhibition of TYR in alpha-MSH-stimulated mouse B16-F10 cells using L-Dopa as substrate incubated for 24 hrs by absorbance based assay; format: cell-based; conditions: dose 5-25 µM
T2 sequence (whole entry): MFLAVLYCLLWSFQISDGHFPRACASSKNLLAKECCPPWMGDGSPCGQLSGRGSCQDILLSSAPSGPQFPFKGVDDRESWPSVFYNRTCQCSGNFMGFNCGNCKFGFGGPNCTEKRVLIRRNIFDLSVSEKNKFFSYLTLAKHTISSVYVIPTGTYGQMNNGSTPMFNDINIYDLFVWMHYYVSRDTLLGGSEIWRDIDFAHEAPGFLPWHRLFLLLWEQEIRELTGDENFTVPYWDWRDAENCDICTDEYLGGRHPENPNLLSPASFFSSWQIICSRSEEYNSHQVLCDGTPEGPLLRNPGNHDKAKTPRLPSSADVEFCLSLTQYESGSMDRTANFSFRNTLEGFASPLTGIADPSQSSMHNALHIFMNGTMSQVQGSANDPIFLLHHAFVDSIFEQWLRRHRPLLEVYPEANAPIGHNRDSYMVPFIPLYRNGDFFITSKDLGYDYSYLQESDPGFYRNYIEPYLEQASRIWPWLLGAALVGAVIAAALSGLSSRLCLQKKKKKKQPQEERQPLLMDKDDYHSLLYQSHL

[14] = target: T3, Tyrosinase (Homo sapiens) (UniProt P14679); experiment: Inhibition of TYR in alpha-MSH-stimulated human A-375 cells using L-Dopa as substrate at 20 uM incubated for 24 hrs by absorbance based assay; format: cell-based
T3 sequence (whole entry): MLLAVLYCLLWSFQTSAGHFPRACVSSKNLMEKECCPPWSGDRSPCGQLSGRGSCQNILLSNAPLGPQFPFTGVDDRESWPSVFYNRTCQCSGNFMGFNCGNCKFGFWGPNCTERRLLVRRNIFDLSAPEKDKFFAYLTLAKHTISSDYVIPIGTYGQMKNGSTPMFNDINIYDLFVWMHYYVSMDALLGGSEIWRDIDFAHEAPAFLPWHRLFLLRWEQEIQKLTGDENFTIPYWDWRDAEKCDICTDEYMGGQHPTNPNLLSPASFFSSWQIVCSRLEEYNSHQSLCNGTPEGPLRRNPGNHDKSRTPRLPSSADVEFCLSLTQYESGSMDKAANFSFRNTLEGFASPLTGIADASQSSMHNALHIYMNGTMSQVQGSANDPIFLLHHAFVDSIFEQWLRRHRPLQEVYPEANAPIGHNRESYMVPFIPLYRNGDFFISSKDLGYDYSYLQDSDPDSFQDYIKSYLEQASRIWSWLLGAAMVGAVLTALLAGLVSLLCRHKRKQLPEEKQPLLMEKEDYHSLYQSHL

[15] = Drug distribution in pig skin epidermis at 2 mg/ml, TOPp measured after 2 hrs by OrbiSIMS imaging analysis; format: ADME, tissue-based, Sus scrofa; conditions: topical_or_ocular
[16] = test system: A-375; experiment: Anti-melanogenic activity against alpha-MSH-stimulated human A-375 cells assessed as decrease in melanin content at 20 uM incubated for 24 hrs by absorbance based assay; format: functional, cell-based
[17] = test system: Cavia porcellus; experiment: Anti-melanogenic activity in guinea pig model of UV-induced skin pigmentation assessed as reduction in melanin production at 1 mM administered topically as CP formulation for 2 weeks measured after 3 days by Fontana-Masson staining based analysis; format: functional, organism-based; conditions: time 17.0 day
[18] = test system: A-375; experiment: Cytotoxicity against human A-375 cells at 50 uM incubated for 72 hrs by MTT assay; format: toxicity, cell-based; conditions: a-375, 72 h

| IC50 [1] | IC50 [2] | Structure (SMILES) | also measured |
| --- | --- | --- | --- |
| 0.212 µM | 0.072 µM | O=C(CCc1ccc(O)cc1O)c1ccc(O)cc1 | – |
| > 10 µM | > 10 µM | O=C(CCc1cccc([N+](=O)[O-])c1)c1ccc(O)cc1O | – |
| > 10 µM | > 10 µM | COc1ccc(CCC(=O)c2ccc(O)cc2O)c(OC)c1OC | – |
| > 10 µM | > 10 µM | COc1ccc(C(=O)CCc2ccc(O)cc2)c(O)c1 | – |
| 0.171 µM | 0.089 µM | COc1ccc(C(=O)CCc2ccc(O)cc2O)cc1 | – |
| > 10 µM | > 10 µM | O=C(CCc1ccc(O)cc1)c1ccc(O)cc1O [DAVIDIGENIN] | – |
| > 10 µM | > 10 µM | COc1ccc(C(=O)CCc2ccccc2O)cc1 | – |
| > 10 µM | > 10 µM | O=C(CCc1ccccc1O)c1ccc(O)cc1O | – |
| > 10 µM | > 10 µM | COc1ccc(C(=O)CCc2ccccc2O)c(O)c1 | – |
| 0.239 µM | 0.123 µM | Cc1ccccc1C(=O)CCc1ccc(O)cc1O | – |
| 0.286 µM | 0.069 µM | O=C(CCc1ccc(O)cc1O)c1ccccc1O | – |
| > 10 µM | > 10 µM | COc1ccc(C(=O)CCc2ccc(O)cc2)cc1 | – |
| 0.183 µM | 0.069 µM | COc1ccc(C(=O)CCc2ccc(O)cc2O)c(O)c1 | – |
| 0.189 µM | 0.133 µM | Cc1cccc(C(=O)CCc2ccc(O)cc2O)c1 | – |
| 0.644 µM | 0.232 µM | CC(C)c1ccc(C(=O)CCc2ccc(O)cc2O)cc1 | – |
| > 10 µM | > 10 µM | COc1ccc(CCC(=O)c2ccc(O)cc2O)c(OC)c1 | – |
| > 10 µM | > 10 µM | COc1cccc(CCC(=O)c2ccc(O)cc2O)c1 | – |

| IC50 [1] | IC50 [2] | Structure (SMILES) | also measured |
| --- | --- | --- | --- |
| > 10 µM | > 10 µM | COc1ccc(C(=O)CCc2ccc(OC)cc2OC)cc1 | – |
| 0.064 µM | 0.05 µM | O=C(CCc1ccc(O)cc1O)c1ccc(O)cc1O | Activity [3]: Dose-Dependent Effect; Activity [4]: 26.77%; Activity [5]: Non-Toxic; Activity [6]: Active; Activity [7]: Dose-Dependent Effect; Activity [8]: Dose-Dependent Effect; Activity [9]: 3.56%; Activity [10]: Dose-Dependent Effect; Activity [11]: Dose-Dependent Effect; Activity [12]: 1.2%; inhibition [13]: Dose-Dependent Effect; inhibition [14]: Active; Drug uptake [15]: Active; Activity [16]: Active; Activity [17]: Active; Activity [18]: Toxic |
| > 10 µM | > 10 µM | COc1cc(CCC(=O)c2ccc(O)cc2O)cc(OC)c1OC | – |
| 0.625 µM | 0.183 µM | O=C(CCc1ccc(O)cc1O)c1ccccc1 | – |
| > 10 µM | > 10 µM | Cc1ccccc1CCC(=O)c1ccc(O)cc1O | – |
| > 10 µM | > 10 µM | O=C(CCc1ccc(O)c(O)c1)c1ccc(O)cc1O | – |
| > 10 µM | > 10 µM | COc1ccc(CCC(=O)c2ccc(O)cc2O)cc1OC | – |
| 0.245 µM | 0.069 µM | COc1ccc(C(=O)CCc2ccc(O)cc2O)cc1O | – |
| > 10 µM | > 10 µM | COc1ccc(CCC(=O)c2ccc(O)cc2O)cc1O | – |
| > 10 µM | > 10 µM | COc1cccc(CCC(=O)c2ccc(O)cc2O)c1OC | – |
| > 10 µM | > 10 µM | COc1ccc(CCC(=O)c2ccc(O)cc2O)c(O)c1 | – |
| 0.165 µM | 0.054 µM | COc1cc(C(=O)CCc2ccc(O)cc2O)ccc1O | Activity [5]: Non-Toxic; Activity [7]: Dose-Dependent Effect; inhibition [13]: Dose-Dependent Effect; inhibition [14]: Active; Activity [16]: Active; Activity [18]: Non-Toxic |
| 1.431 µM | 0.331 µM | O=C(CCc1ccc(O)cc1O)c1ccc(-c2ccccc2)cc1 | – |
| 0.189 µM | 0.119 µM | O=C(CCc1ccc(O)cc1O)c1ccc(Cl)cc1Cl | – |
| > 10 µM | > 10 µM | O=C(CCc1cccc(O)c1)c1ccc(O)cc1O | – |
| 0.184 µM | 0.11 µM | O=C(CCc1ccc(O)cc1O)c1ccc(Br)cc1 | – |
